Assay results reported in patent US4304715A, “Enkephalin analogues” (priority 1979, dated 1981).

Key:
[1] = system: rat brain membranes; test: Radio receptor assay (R.R.A.), an opiate binding assay: displacement of tritiated naloxone from rat brain membranes; details: based on concentration required to displace 50% of (3H)naloxone (1nM) from rat brain membranes; pH 7.4, 15 minutes, bacitracin; Met Enkephalin = 100%
[2] = system: mouse vas deferens; details: inhibition of electrically induced contractions, Met Enkephalin = 100%
Procedure: (ii) M.V.D. stands for mouse vas deferens
were performed as described in the literature

For `CSCC[C@H](NC(=O)[C@H](Cc1ccccc1)NC(=O)CNC(=O)CCCC(N)Cc1ccc(O)cc1)C(N)=O` (stereo partly drawn) [Analogue H211, 5-Amino-6-(4'-hydroxyphenyl)-hexanoyl-glycyl-L-phenylalanyl-L-methionine amide], the “Activity Relative to Met Enkephalin R.R.A.” value [1] was 9% and the “Activity Relative to Met Enkephalin M.V.D.” value [2] was 0.9%.
